From PubChem BioAssay (NCI)
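GI50 = concentration required for 50% inhibition of growth. TGI is the concentration that stops growth completely.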

Experiments:
Assay in all cases: NCI anticancer screen, dose series, 384-well format
IGROV1 ovarian = system: IGROV1 ovarian
HL-60(TB) leukemia = system: HL-60(TB) leukemia
U251 glioblastoma = system: U251 glioblastoma
HOP-62 NSCLC = system: HOP-62 NSCLC
HCC-2998 colon = system: HCC-2998 colon
NCI/ADR-RES ovarian = system: NCI/ADR-RES ovarian
MCF7 breast = system: MCF7 breast
NCI-H226 lung = system: NCI-H226 lung
NCI-H522 lung = system: NCI-H522 lung
SK-MEL-28 melanoma = system: SK-MEL-28 melanoma
SNB-75 CNS = system: SNB-75 CNS
SF-539 CNS = system: SF-539 CNS
TK-10 renal = system: TK-10 renal
SN12C renal = system: SN12C renal
A498 renal = system: A498 renal
COLO 205 colon = system: COLO 205 colon
HCT-15 colon = system: HCT-15 colon
LOX IMVI melanoma = system: LOX IMVI melanoma
RPMI-8226 leukemia = system: RPMI-8226 leukemia
OVCAR-4 ovarian = system: OVCAR-4 ovarian
EKVX NSCLC = system: EKVX NSCLC
786-0 renal = system: 786-0 renal
SW-620 colon = system: SW-620 colon
OVCAR-8 ovarian = system: OVCAR-8 ovarian
CCRF-CEM leukemia = system: CCRF-CEM leukemia
OVCAR-3 ovarian = system: OVCAR-3 ovarian
UO-31 renal = system: UO-31 renal
PC-3 prostate = system: PC-3 prostate
CAKI-1 renal = system: CAKI-1 renal
MDA-MB-231 breast = system: MDA-MB-231 breast
HT29 colon = system: HT29 colon
HS 578T breast = system: HS 578T breast
SF-268 CNS = system: SF-268 CNS
A549 NSCLC = system: A549 NSCLC
DU-145 prostate = system: DU-145 prostate
HCT-116 colon = system: HCT-116 colon
UACC-257 melanoma = system: UACC-257 melanoma
UACC-62 melanoma = system: UACC-62 melanoma
KM12 colon = system: KM12 colon
MALME-3M melanoma = system: MALME-3M melanoma
MDA-MB-435 melanoma = system: MDA-MB-435 melanoma
SK-MEL-5 melanoma = system: SK-MEL-5 melanoma
M14 melanoma = system: M14 melanoma
RXF 393 renal = system: RXF 393 renal
MOLT-4 leukemia = system: MOLT-4 leukemia
ACHN renal = system: ACHN renal
OVCAR-5 ovarian = system: OVCAR-5 ovarian
HOP-92 NSCLC = system: HOP-92 NSCLC
SF-295 CNS = system: SF-295 CNS
SR leukemia = system: SR leukemia
NCI-H460 NSCLC = system: NCI-H460 NSCLC
BT-549 breast = system: BT-549 breast
MDA-MB-468 breast = system: MDA-MB-468 breast
NCI-H322M lung = system: NCI-H322M lung
T-47D breast = system: T-47D breast
SNB-19 CNS = system: SNB-19 CNS
NCI-H23 lung = system: NCI-H23 lung
SK-OV-3 ovarian = system: SK-OV-3 ovarian

CC#CC(=O)N1CCC[C@H]1c1nc(-c2ccc(C(=O)Nc3ccccn3)cc2)c2c(N)nccn12
GI50 (IGROV1 ovarian): 20 µM
TGI (IGROV1 ovarian): 64.3 µM
GI50 (HL-60(TB) leukemia): > 100 µM
TGI (HL-60(TB) leukemia): > 100 µM
GI50 (U251 glioblastoma): > 100 µM
TGI (U251 glioblastoma): > 100 µM
GI50 (HOP-62 NSCLC): 42 µM
TGI (HOP-62 NSCLC): > 100 µM
GI50 (HCC-2998 colon): > 100 µM
TGI (HCC-2998 colon): > 100 µM
GI50 (NCI/ADR-RES ovarian): > 100 µM
TGI (NCI/ADR-RES ovarian): > 100 µM
GI50 (MCF7 breast): 50.9 µM
TGI (MCF7 breast): > 100 µM
GI50 (NCI-H226 lung): 41.6 µM
TGI (NCI-H226 lung): 98.4 µM
GI50 (NCI-H522 lung): 5.87 µM
TGI (NCI-H522 lung): > 80.8 µM
GI50 (SK-MEL-28 melanoma): > 100 µM
TGI (SK-MEL-28 melanoma): > 100 µM
GI50 (SNB-75 CNS): 29.7 µM
TGI (SNB-75 CNS): > 83 µM
GI50 (SF-539 CNS): > 100 µM
TGI (SF-539 CNS): > 100 µM
GI50 (TK-10 renal): 57.2 µM
TGI (TK-10 renal): > 100 µM
GI50 (SN12C renal): 98 µM
TGI (SN12C renal): > 100 µM
GI50 (A498 renal): 59.6 µM
TGI (A498 renal): > 100 µM
GI50 (COLO 205 colon): > 100 µM
TGI (COLO 205 colon): > 100 µM
GI50 (HCT-15 colon): > 76.2 µM
TGI (HCT-15 colon): > 100 µM
GI50 (LOX IMVI melanoma): > 89.2 µM
TGI (LOX IMVI melanoma): > 100 µM
GI50 (RPMI-8226 leukemia): 48.5 µM
TGI (RPMI-8226 leukemia): > 100 µM
GI50 (OVCAR-4 ovarian): > 100 µM
TGI (OVCAR-4 ovarian): > 100 µM
GI50 (EKVX NSCLC): 73.1 µM
TGI (EKVX NSCLC): > 100 µM
GI50 (786-0 renal): > 74.8 µM
TGI (786-0 renal): > 100 µM
GI50 (SW-620 colon): > 100 µM
TGI (SW-620 colon): > 100 µM
GI50 (OVCAR-8 ovarian): > 90 µM
TGI (OVCAR-8 ovarian): > 100 µM
GI50 (CCRF-CEM leukemia): 85.3 µM
TGI (CCRF-CEM leukemia): > 100 µM
GI50 (OVCAR-3 ovarian): 44.8 µM
TGI (OVCAR-3 ovarian): > 100 µM
GI50 (UO-31 renal): > 95.6 µM
TGI (UO-31 renal): > 100 µM
GI50 (PC-3 prostate): > 100 µM
TGI (PC-3 prostate): > 100 µM
GI50 (CAKI-1 renal): 57.7 µM
TGI (CAKI-1 renal): > 100 µM
GI50 (MDA-MB-231 breast): 38.3 µM
TGI (MDA-MB-231 breast): > 100 µM
GI50 (HT29 colon): 84.8 µM
TGI (HT29 colon): > 100 µM
GI50 (HS 578T breast): 44.9 µM
TGI (HS 578T breast): > 100 µM
GI50 (SF-268 CNS): > 86.4 µM
TGI (SF-268 CNS): > 100 µM
GI50 (A549 NSCLC): 51.9 µM
TGI (A549 NSCLC): > 100 µM
GI50 (DU-145 prostate): 82 µM
TGI (DU-145 prostate): > 100 µM
GI50 (HCT-116 colon): 47.9 µM
TGI (HCT-116 colon): > 100 µM
GI50 (UACC-257 melanoma): 67.7 µM
TGI (UACC-257 melanoma): > 100 µM
GI50 (UACC-62 melanoma): 39.9 µM
TGI (UACC-62 melanoma): > 100 µM
GI50 (KM12 colon): > 100 µM
TGI (KM12 colon): > 100 µM
GI50 (MALME-3M melanoma): > 58.9 µM
TGI (MALME-3M melanoma): > 100 µM
GI50 (MDA-MB-435 melanoma): > 100 µM
TGI (MDA-MB-435 melanoma): > 100 µM
GI50 (SK-MEL-5 melanoma): 60.5 µM
TGI (SK-MEL-5 melanoma): > 100 µM
GI50 (M14 melanoma): 74.8 µM
TGI (M14 melanoma): > 100 µM
GI50 (RXF 393 renal): 14.2 µM
TGI (RXF 393 renal): > 60.9 µM
GI50 (MOLT-4 leukemia): 18.8 µM
TGI (MOLT-4 leukemia): 36.1 µM
GI50 (ACHN renal): > 73.2 µM
TGI (ACHN renal): > 100 µM
GI50 (OVCAR-5 ovarian): > 100 µM
TGI (OVCAR-5 ovarian): > 100 µM
GI50 (HOP-92 NSCLC): 68.8 µM
TGI (HOP-92 NSCLC): > 100 µM
GI50 (SF-295 CNS): > 100 µM
TGI (SF-295 CNS): > 100 µM
GI50 (SR leukemia): 15.2 µM
TGI (SR leukemia): 42.1 µM
GI50 (NCI-H460 NSCLC): 71.8 µM
TGI (NCI-H460 NSCLC): > 100 µM
GI50 (BT-549 breast): 27.9 µM
TGI (BT-549 breast): > 91.9 µM
GI50 (MDA-MB-468 breast): 15.5 µM
TGI (MDA-MB-468 breast): 40.7 µM
GI50 (NCI-H322M lung): 31.6 µM
TGI (NCI-H322M lung): > 88.3 µM
GI50 (T-47D breast): 40.1 µM
TGI (T-47D breast): > 100 µM
GI50 (SNB-19 CNS): > 100 µM
TGI (SNB-19 CNS): > 100 µM
GI50 (NCI-H23 lung): > 100 µM
TGI (NCI-H23 lung): > 100 µM
GI50 (SK-OV-3 ovarian): 71.4 µM
TGI (SK-OV-3 ovarian): > 100 µM
